Results published in patent US20230036854A1, “HETEROCYCLIC SPIRO-COMPOUNDS AS AM2 RECEPTOR INHIBITORS” (THE UNIVERSITY OF SHEFFIELD, priority 2018, published 2023).

Target: T1, AM2 receptor (1321N1 cells transfected with CALCRL+RAMP3) (Homo sapiens, UniProt O60896+Q16602)
T1 construct: host or cells: 1321N1 cells
Experiment: AM2 receptor inhibition, LANCE cAMP agonist-antagonist competition assay
Assay type: cell-based
Details: inhibition of AM induced cAMP activation, read-out: AM2 D2 protocol: pIC50 (converted)
Method: Compounds were assessed for their ability to inhibit ligand-induced elevations of cAMP, using the Perkin Elmer LANCE cAMP assay using commercially-available cells expressing a specific receptor of interest using the following general procedure:
Compounds were prepared in dimethyl sulfoxide (DMSO—99.9% pure) (Sigma Aldrich, Cat #: D4540) added to powder stocks to produce a 20 mM solution (100% DMSO) that was sonicated at 37° C. for 10 minutes to fully dissolve the compounds. The 20 mM stocks were diluted further in DMSO to produce a 2 mM solution that was sonicated at 37° C. for 10 minutes. 2 mM stocks were dissolved in assay/stimulation buffer to produce a 400 μM solution that was sonicated at 37° C. for 10 minutes for all cAMP assays. All stocks were stored at −20° C. Then serial dilution (Dilution factor: 10) was performed to achieve the desire experimental concentrations.
Competition assays were performed according to the manufactures instructions using LANCE® TR-FRET cAMP assay kit (Perkin Elmer, Cat #: AD0264). Serial dilutions (3 μl/well) of the molecules were plated in a 384-well OptiPlate (Perkin Elmer, Cat #: 6007299) in duplicates. Appropriate controls (100% stimulation: Forskolin and 0% stimulation: Vehicle control) (6 μl/well) were included in each plate for data normalization. Following the compound addition, 6 μl of G-protein coupled receptor overexpressing cells/Alexa Fluor antibody solution (1:100 dilution) was added in each well at a desired density of 2500cells/well. The overexpressing cell lines were purchased from DiscoveRx, Birmingham, UK. After spinning the plate at 1000 rpm for 1 minute and vortexing briefly, the cells were pre-incubated with the compounds for 30 minutes at room temperature (covered). Then 3 μl of the equivalent peptide ligand (EC50 dose) was added to all the wells except vehicle and forskolin controls. The plate were then spun down at 1000 rpm for 1 minute and once finished they were vortexed briefly and covered. Cells were stimulated in the presence of the ligands for 15 minutes at room temperature. After stimulation 12 μl of detection mix (Europium-Chelate streptavidin/biotinylated cAMP tracer solution) was added to all wells and incubated for 60 minutes at room temperature. The plate was then read on the Enspire multimode Plate reader (Perkin Elmer), at; 320/340 nm excitation and 615/665 nm emission was recorded.
Assay/Stimulation Buffer (30 mL)—pH 7.4 • 28 mL Hank's Balanced salt solution (+MgCl2, +CaCl2)—(Thermo Fisher Cat #:14170112) • 150 μl HEPES (1M)—(Thermo Fisher Cat #:15630080) • 400 μl Stabilizer (DTPA) Purified BSA (7.5%)—(Perkin Elmer, Cat #: CR84-100)
The ability of a compound to inhibit the AM induced cAMP activation in AM2 receptor-expressing cells (1321N1 cells transfected with CALCRL+RAMP3, sourced from DiscoverX catalogue number 95-0169C6) was assessed using the protocol above.

T1 sequence (Q16602 23-461): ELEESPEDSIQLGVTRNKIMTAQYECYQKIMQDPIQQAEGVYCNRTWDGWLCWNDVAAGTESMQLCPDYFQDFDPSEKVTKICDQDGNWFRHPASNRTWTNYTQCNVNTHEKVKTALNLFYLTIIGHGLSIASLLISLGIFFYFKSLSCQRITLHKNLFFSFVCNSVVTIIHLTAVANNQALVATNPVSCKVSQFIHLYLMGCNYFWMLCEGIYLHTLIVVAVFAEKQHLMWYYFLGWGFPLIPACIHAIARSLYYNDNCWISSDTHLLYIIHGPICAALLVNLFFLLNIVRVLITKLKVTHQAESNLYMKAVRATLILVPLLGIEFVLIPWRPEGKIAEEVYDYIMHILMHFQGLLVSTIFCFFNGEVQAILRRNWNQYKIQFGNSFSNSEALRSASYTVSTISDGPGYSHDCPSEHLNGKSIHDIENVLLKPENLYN
T1 sequence (O60896 24-148): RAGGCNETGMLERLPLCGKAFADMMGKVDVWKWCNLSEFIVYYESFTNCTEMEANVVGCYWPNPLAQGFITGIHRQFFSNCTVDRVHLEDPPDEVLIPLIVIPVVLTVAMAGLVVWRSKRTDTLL

Work on `CCC1(C(=O)N(CC(=O)Nc2ccc3c(c2)C[C@@]2(C3)C(=O)Nc3ncccc32)Cc2ccccc2CNC)CCN(C(=O)OC)CC1` [Example 116, (R)-Methyl 4-ethyl-4-((2-((methylamino)methyl)benzyl)(2-oxo-2-((2′-oxo-1,1′,2′,3-tetrahydrospiro[indene-2,3′-pyrrolo[2,3-b]pyridin]-5-yl)amino)ethyl)carbamoyl)piperidine-1-carboxylate] yielded an IC50 of 20 nM.
Molecule `CNCc1ccccc1CN(CC(=O)Nc1ccc2c(c1)C[C@@]1(C2)C(=O)Nc2ncccc21)C(=O)C1(C)CCN(C(=O)C(C)C)CC1` [Example 16, (R)-1-Isobutyryl-4-methyl-N-(2-((methylamino)methyl)benzyl)-N-(2-oxo-2-((2′-oxo-1,1′,2′,3-tetrahydrospiro[indene-2,3′-pyrrolo[2,3-b]pyridin]-5-yl)amino)ethyl)piperidine-4-carboxamide] has an IC50 of 3.24 nM.
In the case of `CNCc1ccccc1CN(C(=O)C1(C)CCN(C(C)=O)CC1)[C@@H](C)C(=O)Nc1ccc2c(c1)C[C@@]1(C2)C(=O)Nc2ncccc21` [Example 66, 1-Acetyl-4-methyl-N-(2-((methylamino)methyl)benzyl)-N—((S)-1-oxo-1-(((R)-2′-oxo-1,1′,2′,3-tetrahydrospiro[indene-2,3′-pyrrolo[2,3-b]pyridin]-5-yl)amino)propan-2-yl)piperidine-4-carboxamide], the IC50 is reported as 457 nM.
Work on `CNCc1ccccc1CN(CC(=O)Nc1ccc2c(c1)C[C@@]1(C2)C(=O)Nc2ncccc21)C(=O)C1(C)CCN(CC(F)(F)F)CC1` [Example 39, (R)-4-Methyl-N-(2-((methylamino)methyl)benzyl)-N-(2-oxo-2-((2′-oxo-1,1′,2′,3-tetrahydrospiro[indene-2,3′-pyrrolo[2,3-b]pyridin]-5-yl)amino)ethyl)-1-(2,2,2-trifluoroethyl)piperidine-4-carboxamide] yielded an IC50 of 19.5 nM.
Molecule `CNCc1ccccc1CN(CC(=O)Nc1ccc2c(c1)CC1(C2)C(=O)Nc2ncccc21)C(=O)C1(C)CCN(C(=O)CN2CCNCC2)CC1` (stereo not drawn) [Example 30, 4-Methyl-N-(2-((methylamino)methyl)benzyl)-N-(2-oxo-2-((2′-oxo-1,1′,2′,3-tetrahydrospiro[indene-2,3′-pyrrolo[2,3-b]pyridin]-5-yl)amino)ethyl)-1-(2-(piperazin-1-yl)acetyl)piperidine-4-carboxamide] has an IC50 of 0.589 nM.
With `CNCc1ccccc1CN(CC(=O)Nc1ccc2c(c1)C[C@@]1(C2)C(=O)Nc2ncccc21)C(=O)C1(CC2CC2)CCN(C(C)=O)CC1` [Example 122, (R)-1-Acetyl-4-(cyclopropylmethyl)-N-(2-((methylamino)methyl)benzyl)-N-(2-oxo-2-((2′-oxo-1,1′,2′,3-tetrahydrospiro[indene-2,3′-pyrrolo[2,3-b]pyridin]-5-yl)amino)ethyl)piperidine-4-carboxamide] the IC50 was 8.32 nM.
In the case of `CNCc1ccccc1CN(CC(=O)Nc1ccc2c(c1)C[C@@]1(C2)C(=O)Nc2ncccc21)C(=O)C1(C)CCN(c2ccncn2)CC1` [Example 61], the IC50 is reported as 2.14 nM.
`CCC1(C(=O)N(CC(=O)Nc2ccc3c(c2)C[C@@]2(C3)C(=O)Nc3ncccc32)Cc2ccccc2CNC)CCN(C(=O)CN2CCOCC2)CC1` [Example 90, (R)-4-Ethyl-N-(2-((methylamino)methyl)benzyl)-1-(2-morpholinoacetyl)-N-(2-oxo-2-((2′-oxo-1,1′,2′,3-tetrahydrospiro[indene-2,3′-pyrrolo[2,3-b]pyridin]-5-yl)amino)ethyl)piperidine-4-carboxamide] showed an IC50 of 22.9 nM.
For `CCOC(=O)N1CCC(CC)(C(=O)N(CC(=O)Nc2ccc3c(c2)C[C@@]2(C3)C(=O)Nc3ncccc32)Cc2ccccc2CNC)CC1` [Example 115, (R)-Ethyl 4-ethyl-4-((2-((methylamino)methyl)benzyl)(2-oxo-2-((2′-oxo-1,1′,2′,3-tetrahydrospiro[indene-2,3′-pyrrolo[2,3-b]pyridin]-5-yl)amino)ethyl)carbamoyl)piperidine-1-carboxylate], the IC50 was 24.5 nM.
